22 compounds from ChEMBL document CHEMBL2073775, “Caco-2 permeability, P-glycoprotein transport ratios and brain penetration of heterocyclic drugs” (Int J Pharm, 2003) can be followed below.

The target in this data set is ATP-dependent translocase ABCB1 (Homo sapiens, UniProt P08183). The data set can be described thus: TP_TRANSPORTER: transepithelial transport in Caco-2 cells. Type of data set: functional, cell-based. A general note: Caco-2 cells form a polarised layer with tight junctions and transporters.
Chain of ATP-dependent translocase ABCB1 (P08183 whole entry): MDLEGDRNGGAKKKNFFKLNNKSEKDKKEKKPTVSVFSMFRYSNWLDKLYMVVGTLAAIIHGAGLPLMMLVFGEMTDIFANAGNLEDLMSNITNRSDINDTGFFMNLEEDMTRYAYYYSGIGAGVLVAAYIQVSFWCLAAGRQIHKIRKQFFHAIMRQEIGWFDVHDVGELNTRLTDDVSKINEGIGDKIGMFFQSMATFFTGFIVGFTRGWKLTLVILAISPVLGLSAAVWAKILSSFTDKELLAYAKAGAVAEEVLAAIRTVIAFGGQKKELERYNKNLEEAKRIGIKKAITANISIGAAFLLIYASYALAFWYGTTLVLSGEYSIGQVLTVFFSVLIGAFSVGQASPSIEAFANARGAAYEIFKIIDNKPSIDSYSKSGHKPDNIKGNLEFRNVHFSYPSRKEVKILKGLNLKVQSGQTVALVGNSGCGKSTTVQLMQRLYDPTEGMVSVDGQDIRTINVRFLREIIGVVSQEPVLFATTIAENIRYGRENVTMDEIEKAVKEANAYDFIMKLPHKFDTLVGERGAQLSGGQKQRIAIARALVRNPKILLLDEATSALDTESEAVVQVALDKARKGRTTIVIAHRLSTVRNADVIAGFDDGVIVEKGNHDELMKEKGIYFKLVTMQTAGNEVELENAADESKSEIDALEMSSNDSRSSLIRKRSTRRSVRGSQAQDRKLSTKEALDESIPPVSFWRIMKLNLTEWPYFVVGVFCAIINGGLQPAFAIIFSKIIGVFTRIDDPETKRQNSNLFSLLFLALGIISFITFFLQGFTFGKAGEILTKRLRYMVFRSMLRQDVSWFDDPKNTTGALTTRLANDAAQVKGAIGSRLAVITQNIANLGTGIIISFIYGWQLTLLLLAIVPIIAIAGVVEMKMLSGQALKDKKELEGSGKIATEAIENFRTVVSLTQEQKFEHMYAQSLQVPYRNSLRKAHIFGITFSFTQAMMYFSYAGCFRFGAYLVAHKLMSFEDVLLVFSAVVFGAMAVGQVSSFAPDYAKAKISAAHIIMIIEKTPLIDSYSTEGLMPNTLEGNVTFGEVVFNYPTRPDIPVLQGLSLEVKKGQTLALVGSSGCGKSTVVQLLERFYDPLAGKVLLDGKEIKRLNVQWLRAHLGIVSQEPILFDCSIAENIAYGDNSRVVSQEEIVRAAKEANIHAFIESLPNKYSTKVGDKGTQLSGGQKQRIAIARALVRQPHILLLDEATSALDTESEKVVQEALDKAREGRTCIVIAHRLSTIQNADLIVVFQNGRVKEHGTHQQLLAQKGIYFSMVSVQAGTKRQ
Turning to `NC(=O)N1c2ccccc2C=Cc2ccccc21` [CARBAMAZEPINE], the Activity entry is “is not a substrate [-]”.

In the case of PEG 4000, the Activity entry is “is not a substrate [-]”.

As to `O=C(O)c1ccccc1O` [SALICYLIC ACID], the Activity entry was “is not a substrate [-]”.

Regarding `CN(C)CCC=C1c2ccccc2CCc2ccccc21` [AMITRIPTYLINE], the Activity result was “substrate [+]”.

For the compound `CC(=O)Oc1ccccc1C(=O)O` [ASPIRIN], the Activity result was “is not a substrate [-]”.

For `CC1(C)CC(=O)N(CCCCN2CCN(c3ncccn3)CC2)C(=O)C1.Cl` [GEPIRONE HYDROCHLORIDE], the Activity entry was “substrate [+]”.

As for `OC[C@@H](O)[C@@H](O)[C@H](O)[C@H](O)CO` [MANNITOL], the Activity result is “is not a substrate [-]”.

In the case of `CC(=O)Nc1ccc(O)cc1` [ACETAMINOPHEN], the Activity result is “is not a substrate [-]”.

Turning to `CC(C)Cc1ccc(C(C)C(=O)O)cc1` (configuration not stated) [IBUPROFEN], the Activity entry is “is not a substrate [-]”.

For `O=C(O)/C=C/C(=O)O.O=C1CCCN1CCCCN1CCN(c2cc(C(F)(F)F)ccn2)CC1`, the Activity entry is “substrate [+]”.

Turning to `CS(=O)(=O)O.O=C(CCCN1CCC(=C(c2ccc(F)cc2)c2ccc(F)cc2)CC1)N1CCCC1`, the Activity entry is “substrate [+]”.

On to `Cc1cc(=O)n(-c2ccccc2)n1C` [ANTIPYRINE], for which the Activity entry was “is not a substrate [-]”.

Take `Cc1nc2n(c(=O)c1CCN1CCC(c3noc4cc(F)ccc34)CC1)CCCC2` [RISPERIDONE]: the Activity entry is “substrate [+]”.

In the case of `CC1(C)CC(=O)N(CCCCN2CCN(c3ncccn3)CC2)C(=O)C1O.Cl` (configuration not stated), the Activity entry is “substrate [+]”.

Turning to `C=CCC(N)c1ccccc1-c1noc2ccccc12.Cl` (single isomer, unassigned; (-)), the Activity entry was “substrate [+]”.

Take `CN1CC2c3ccccc3Oc3ccc(Cl)cc3C2C1.O=C(O)/C=C\C(=O)O` (racemic) [ASENAPINE MALEATE]: the Activity entry is “substrate [+]”.

Regarding `CNC(=C[N+](=O)[O-])NCCSCc1ccc(CN(C)C)o1` [RANITIDINE], the Activity entry was “is not a substrate [-]”.

`Clc1cccc(Cl)c1N=C1NCCN1` [CLONIDINE]: the Activity result is “substrate [+]”.

Regarding `Cl.FC(F)(F)c1ccc(N2CCNCC2)nc1Cl`, the Activity result was “substrate [+]”.

With `COc1ccc2c(c1)c(CC(=O)O)c(C)n2C(=O)c1ccc(Cl)cc1` [INDOMETHACIN], the Activity entry was “is not a substrate [-]”.

`CN1CCC(=C(c2ccc(F)cc2)c2cc(Cl)cs2)CC1`: the Activity result was “substrate [+]”.

On to `COc1cc2cc(C3=NNC(=O)CC3C)sc2cc1OC` (configuration not stated), for which the Activity entry was “is not a substrate [-]”.
